Data as given in ChEMBL document CHEMBL5046300, “Potent Bactericidal Antimycobacterials Targeting the Chaperone ClpC1 Based on the Depsipeptide Natural Products Ecumicin and Ohmyungsamycin A” (2022).
≈ marks a conversion by molar mass, not a printed value. Calls of active or inactive are those of the source. The calls are words filed in the database; no cut-off is given here. Where a SMILES comes first, the peptide text is derived from it. Bridges are numbered along the chain shown (N, C = ends). [ ]: non-standard residue; d: D form. NMeW = CN[C@@H](Cc1c[nH]c2ccccc12)C(=O)O; Hyp = O=C(O)[C@@H]1C[C@@H](O)CN1; NMeChg = CN[C@H](C(=O)O)C1CCCCC1; NMeT = CN[C@H](C(=O)O)[C@@H](C)O; NMeD = CN[C@@H](CC(=O)O)C(=O)O; NMeL = CN[C@@H](CC(C)C)C(=O)O; NMeNle = CCCC[C@H](NC)C(=O)O; NMeDap = CN[C@@H](CN)C(=O)O; NMeV = CN[C@H](C(=O)O)C(C)C

Legend:
[1] = system: Mycobacterium tuberculosis; test: Antibacterial activity against Mycobacterium tuberculosis mc2 6230 assessed as reduction in viable cells at 10 times MIC measured for 42 days in solid media by time kill assay; assay type: functional; settings: time 42.0 day
[2] = system: Mycobacterium tuberculosis; test: Antimycobacterial activity against Mycobacterium tuberculosis mc2 6230 measured after 7 days; assay type: functional; settings: mc2 6230, 168 h, time 7 day
[3] = system: Mycobacterium tuberculosis; test: Antimycobacterial activity against Mycobacterium tuberculosis mc2 6230 assessed as log reduction in bacteria measured up to 21 days by Time kill assay; assay type: functional, organism-based; settings: time day <=21

Q: `NNC(=O)c1ccncc1` was tested. Which Activity [1] did it give?
A: inactive

Q: For `CN[C@H](C(=O)N[C@H](C(=O)N[C@@H]1C(=O)N(C)[C@@H]([C@@H](C)O)C(=O)N[C@@H](C(C)C)C(=O)N(C)[C@@H](CC(C)C)C(=O)N[C@@H](C(C)C)C(=O)N2CCC[C@H]2C(=O)N(C)[C@@H](Cc2c[nH]c3ccccc23)C(=O)N[C@@H](C(C)C)C(=O)N[C@@H](Cc2ccccc2)C(=O)N[C@@H](C(C)C)C(=O)O[C@@H]1C)C(C)C)C(C)C` (H-[NMeV]VT[NMeT]V[NMeL]VP[NMeW]VFV; ester 3-C), which MIC [2] is on record?
A: 8 µM (≈ 11.2 µg/mL)

Q: With `CN[C@H](C(=O)N[C@H](C(=O)N[C@@H]1C(=O)N(C)[C@@H]([C@@H](C)O)C(=O)N[C@@H](C(C)C)C(=O)N(C)[C@@H](CC(C)C)C(=O)N[C@@H](C(C)C)C(=O)N2C[C@H](O)C[C@H]2C(=O)N(C)[C@@H](Cc2c[nH]c3ccccc23)C(=O)N[C@@H](C(C)C)C(=O)N[C@@H](Cc2ccccc2)C(=O)N[C@@H](C(C)C)C(=O)O[C@@H]1C)C(C)C)C(C)C` (H-[NMeV]VT[NMeT]V[NMeL]V[Hyp][NMeW]VFV; ester 3-C) as the compound, how does the MIC [2] read?
A: 8 µM (≈ 11.3 µg/mL)

Q: How did the MIC [2] turn out when `CN[C@H](C(=O)N[C@H](C(=O)N[C@@H]1C(=O)N(C)[C@@H]([C@@H](C)O)C(=O)N[C@@H](C(C)C)C(=O)N(C)[C@@H](CC(C)C)C(=O)N[C@@H](C(C)C)C(=O)N(C)[C@@H](C2CCCCC2)C(=O)N(C)[C@@H](Cc2c[nH]c3ccccc23)C(=O)N[C@@H](C(C)C)C(=O)N[C@@H](Cc2ccccc2)C(=O)N[C@@H](C(C)C)C(=O)O[C@@H]1C)C(C)C)C(C)C` (H-[NMeV]VT[NMeT]V[NMeL]V[NMeChg][NMeW]VFV; ester 3-C) was run?
A: 0.5 µM (≈ 0.726 µg/mL)

Q: How did the MIC [2] turn out when `CN[C@H](C(=O)N[C@H](C(=O)N[C@@H]1C(=O)N(C)[C@@H]([C@@H](C)O)C(=O)N[C@@H](C(C)C)C(=O)N(C)[C@@H](CC(C)C)C(=O)N[C@@H](C(C)C)C(=O)N(C)[C@@H](CC(=O)O)C(=O)N(C)[C@@H](Cc2c[nH]c3ccccc23)C(=O)N[C@@H](C(C)C)C(=O)N[C@@H](Cc2ccccc2)C(=O)N[C@@H](C(C)C)C(=O)O[C@@H]1C)C(C)C)C(C)C` (H-[NMeV]VT[NMeT]V[NMeL]V[NMeD][NMeW]VFV; ester 3-C) was run?
A: 32 µM (≈ 45.7 µg/mL)

Q: How did the MIC [2] turn out when `CN[C@H](C(=O)N[C@H](C(=O)N[C@@H]1C(=O)N(C)[C@@H]([C@@H](C)O)C(=O)N[C@@H](C(C)C)C(=O)N(C)[C@@H](CC(C)C)C(=O)N[C@@H](C(C)C)C(=O)N(C)[C@@H](CN)C(=O)N(C)[C@@H](Cc2c[nH]c3ccccc23)C(=O)N[C@@H](C(C)C)C(=O)N[C@@H](Cc2ccccc2)C(=O)N[C@@H](C(C)C)C(=O)O[C@@H]1C)C(C)C)C(C)C` (H-[NMeV]VT[NMeT]V[NMeL]V[NMeDap][NMeW]VFV; ester 3-C) was run?
A: 2 µM (≈ 2.8 µg/mL)

Q: Which MIC [2] does the source give for `CN[C@H](C(=O)N[C@H](C(=O)N[C@@H]1C(=O)N(C)[C@@H]([C@@H](C)O)C(=O)N[C@@H](C(C)C)C(=O)N(C)[C@@H](CC(C)C)C(=O)N[C@@H](C(C)C)C(=O)N(C)[C@@H](CC(C)C)C(=O)N(C)[C@@H](Cc2c[nH]c3ccccc23)C(=O)N[C@@H](C(C)C)C(=O)N[C@@H](Cc2ccccc2)C(=O)N[C@@H](C(C)C)C(=O)O[C@@H]1C)C(C)C)C(C)C` (H-[NMeV]VT[NMeT]V[NMeL]V[NMeL][NMeW]VFV; ester 3-C) here?
A: 0.25 µM (≈ 0.357 µg/mL)

Q: What about the Activity [3] of the same compound?
A: Active

Q: `CCCC[C@H]1C(=O)N(C)[C@@H](Cc2c[nH]c3ccccc23)C(=O)N[C@@H](C(C)C)C(=O)N[C@@H](Cc2ccccc2)C(=O)N[C@@H](C(C)C)C(=O)O[C@H](C)[C@H](NC(=O)[C@@H](NC(=O)[C@@H](NC)C(C)C)C(C)C)C(=O)N(C)[C@@H]([C@@H](C)O)C(=O)N[C@@H](C(C)C)C(=O)N(C)[C@@H](CC(C)C)C(=O)N[C@@H](C(C)C)C(=O)N1C` (H-[NMeV]VT[NMeT]V[NMeL]V[NMeNle][NMeW]VFV; ester 3-C) was tested. Which MIC [2] did it give?
A: 0.5 µM (≈ 0.713 µg/mL)
